Reference: patent publication US20240082342A1, “PEPTIDE THERAPEUTICS FOR INCREASING LUNG CELL VIABILITY” (BOARD OF REGENTS, THE UNIVERSITY OF TEXAS SYSTEM, priority 2018, published 2024)
“Also recorded” adds a separate entry of the source.

Key:
human COPD lung tissues = assay: Human COPD lung tissues treated ex vivo for 72 h; type: cell-based; conditions: for active caspase-3 in AT2 cells isolated from treated tissue: COPD tissue ex vivo
Experimental: Lung tissues from control subjects and patients with COPD were treated with or without CSP7 for 72 h ex vivo or in vitro. Lung homogenates were analyzed for immunoblot and Real time PCR.
Treatment of human lung tissues with CSP7 ex vivo. For ex vivo studies, de-identified human COPD lung tissues and histologically “normal” lung (nL) tissues were obtained from transplant recipients and from the Gift of Life Donor Program (www.donors1.org) from Temple University, Philadelphia, PA, USA.
Ex vivo studies using human lung tissues without patient identity was approved by the Institutional (UTHSCT) Review Board (IRB) through exempt protocol #12-003. nL and COPD tissues (n=4-5) were treated with or without CSP7 for 72 h ex vivo as described previously (Marudamuthu et al, 2019). Total protein and RNA extracted from the lung tissues were analyzed by Western blotting and qPCR for MUC5AC protein and mRNA, respectively. In separate experiments, AT2 cells isolated from nL and COPD lungs were treated with CSP7 or CP and immunoblotted for changes in senescence or apoptosis, p53, PAI-1 and SP-C expression. Similarly, nL and COPD tissues were treated with or without CSP7 or CP for 72 h ex vivo and AT2 cells isolated from these tissues were analyzed for senescence or apoptosis, p53, PAI-1 and SP-C.

WT mice exposed to PTS = assay: Passive tobacco smoke (PTS) exposed WT mice treated IP with CSP or CSP7 once a week; type: in vivo, mouse; conditions: for p53, PAI-1 expression and apoptosis in A2Cs/A2ECs: PTS (or IL-17A) exposure; for pulmonary influx of CD4- and CD8-positive T cells, macrophages and neutrophils: PTS exposed mice
Experimental: Four weeks after initiation of PTS exposure, the WT mice were administered an intraperitoneal injection of vehicle or CSP (18.75 mg/kg body wt) or control peptide (CP) once a week for the next 4 weeks. Exposure to PTS was continued for another 12 weeks. BAL fluid and lysates (CL) from A2ECs isolated from PTS exposed WT mice treated with vehicle, CSP or CP were immunoblotted for p53 and PAI-1 and activation of caspase-3. -β-actin was tested for similar loading. […] The process involves inhibition of p53-induced PAI-1 expression.
FIGS. 57A-57C show inhibition of PTS-induced IL-17A by CSP in WT mice. Four weeks after initiation of PTS exposure as in FIG. 56, the WT mice were administered an intraperitoneal (IP) injection of vehicle or CSP (18.75 mg/kg body wt) or control peptide (CP) once a week for the next 4 weeks. Exposure to PTS was continued for another 12 weeks. Lung sections (A), lung homogenates (B) and total RNA (C) were analyzed for IL-17A and IL-17R mRNA expression by qRT-PCR.
FIGS. 60A-60B show inhibition of PTS-induced p53^AC, p53^S15 and p53, PAI-1, apoptosis and senescence by CSP7 in WT mice. Four weeks after initiation of PTS exposure as in FIG. 56, the WT mice were IP injected with vehicle or CSP7 or CP once a week for the next 4 weeks. Exposure to PTS was continued for another 12 weeks. (A) Lung sections were subjected IHC analysis for p53 and PAI-1. (B) A2ECs isolated from the lungs of these mice were immunoblotted for above mentioned proteins.
Wild-type (WT) and p53- and PAI-1-deficient mice of C57BL/6 background were bred in the inventor's facilities or were purchased from Jackson Laboratories. These mice were exposed to passive TSE from 40 research cigarettes over a 2 hour period 5 days/week for 20 weeks (^˜90 mg/m3 total solid particulates) by using a mechanical smoking chamber (Teague Enterprises, Davis, CA). Control mice were exposed to ambient air. Four weeks after initiation of passive TSE exposure, the mice were administered an intraperitoneal injection of CSP7 or scrambled control peptide (CP) (18.75 mg/kg body wt) once a week for 4 weeks (Marudamuthu et al. Am J Pathol 185: 55-68, 2015); Tiwari et al., supra). Mice were killed, and their lungs were used for further analyses (Bhandary et al., supra).

For “DGIWKASFTTFTVTKYWFYR (listed as Homo sapiens) [CSP, 20 residue caveolin-1 scaffolding domain peptide]”, the “MUC5AC, HDAC6, SPDEF, Ac-Tubulin, FOXA2 and other MCM markers (Western blot)” value (human COPD lung tissues; COPD tissue, 10 μM, 72 h) was “reverse”, the “p53, PAI-1 expression and apoptosis in A2Cs/A2ECs” value (WT mice exposed to PTS) was “mitigates A2EC apoptosis” and the “pulmonary influx of CD4- and CD8-positive T cells, macrophages and neutrophils” value (WT mice exposed to PTS) was “inhibits pulmonary influx of CD4- and CD8-positive T cells, macrophages and neutrophils”. For the same substance, the “lung inflammation, pulmonary PMN accumulation (MPO)” value (WT mice exposed to PTS; WT mice, 20 weeks PTS) was “significantly suppresses lung inflammation”, the “lung volume (micro-CT)” value (WT mice exposed to PTS; WT mice, 20 weeks PTS) was “significantly reduced; also recorded: reduced lung volumes” and the “Cav1 binding with PP2Ac in A2ECs” value (WT mice exposed to PTS; WT mice, PTS) was “inhibited the PTS-induced binding of Cav1 with PP2Ac”. The “Cav1 expression in A2ECs” value (WT mice exposed to PTS; WT mice, PTS) was “without affecting Cav1 expression; also recorded: without inhibiting PTS-induced Cav1”, the “PTS-induced IL-17A (and IL-17R) in the lungs” value (WT mice exposed to PTS; WT mice, PTS) was “inhibits PTS-induced accumulation of IL-17A in the lungs; also recorded: significantly inhibited PTS-induced IL-17A and IL-17R levels” and the “acetylated p53, serine-15 phosphorylated p53, total p53 and Sirt1 in A2ECs” value (“acetylated p53” for short) (WT mice exposed to PTS; WT mice, PTS) was “blocked ^p15Sp53; also recorded: inhibits acetylation; also recorded: restoration of Sirt1; also recorded: reduced p53^AC, p53^S15 and total p53 levels, and restored baseline Sirt1 expression”. The “miR-34a expression in A2ECs” value (WT mice exposed to PTS; WT mice, PTS) was “suppression of miR-34a expression; also recorded: significantly inhibited”.
“FTTFTVT (listed as Homo sapiens) [CSP7, heptapeptide fragment of the caveolin-1 scaffolding domain peptide CSP]” was tested, and the “PP2A and CIP2A mRNA” value (human COPD lung tissues; COPD tissue) was “significantly reversed”, the “active caspase-3 in AT2 cells isolated from treated tissue” value (human COPD lung tissues) was “reduced active caspase-3” and the “MUC5AC, HDAC6, FOXA3, CAV1 and FOXA2 mRNA” value (human COPD lung tissues; COPD tissue, 10 μM, 72 h) was “parallel inhibition of MUC5AC, HDAC6, FOXA3 and CAV1 mRNA with an increase in FOXA2 mRNA”. The “MUC5AC, HDAC6, SPDEF, Ac-Tubulin, FOXA2 and other MCM markers (Western blot)” value (human COPD lung tissues; COPD tissue, 10 μM, 72 h) was “reverse; also recorded: reduced MUC5AC and other MCM markers”, the “baseline CAV1, p53 and PAI-1” value (human COPD lung tissues; COPD tissue, 10 μM, 72 h) was “suppression of baseline CAV1, p53, and PAI-1” and the “p53 and SP-C in AT2 cells isolated from treated tissue” value (human COPD lung tissues; COPD tissue, 72 h ex vivo) was “reduction in p53 while restoring baseline SP-C expression”. For the same substance, the “effect in nL tissues” value (human COPD lung tissues; normal lung tissue ex vivo) was “minimal effect”, the “p53, PAI-1 expression and apoptosis in A2Cs/A2ECs” value (WT mice exposed to PTS) was “inhibited PTS or IL-17A exposure induced p53” and the “pulmonary influx of CD4- and CD8-positive T cells, macrophages and neutrophils” value (WT mice exposed to PTS) was “inhibits pulmonary influx of CD4- and CD8-positive T cells, macrophages and neutrophils; also recorded: reversed”. For the same substance, the “PAI-1, p53^AC, p53^S15, cleaved Caspase-3 and beta-galactosidase in lung sections and A2ECs” value (WT mice exposed to PTS; WT mice, 20 weeks PTS) was “markedly reduced”, the “lung volume (micro-CT)” value (WT mice exposed to PTS; WT mice, 20 weeks PTS) was “significantly reduced; also recorded: reduced lung volumes” and the “Cav1 expression in A2ECs” value (WT mice exposed to PTS; WT mice, PTS) was “without inhibiting PTS-induced Cav1”. For the same substance, the “PTS-induced IL-17A (and IL-17R) in the lungs” value (WT mice exposed to PTS; WT mice, PTS) was “inhibits PTS-induced accumulation of IL-17A in the lungs”, the “acetylated p53” value (WT mice exposed to PTS; WT mice, PTS) was “reduced p53^AC, p53^S15 and total p53 levels, and restored baseline Sirt1 expression” and the “miR-34a expression in A2ECs” value (WT mice exposed to PTS; WT mice, PTS) was “reduced miR-34a”. The “p53 and PAI-1 in BAL fluids and lung homogenates” value (WT mice exposed to PTS; injected 4 weeks after initiation of TSE, 20 weeks) was “significantly suppressed the expression of p53 and PAI-1”.
“WGIDKAFFTTSTVTYKWFRY [CP, scrambled control peptide with the same amino acid composition as CSP, reference compound]” was tested, and the “active caspase-3 in AT2 cells isolated from treated tissue” value (human COPD lung tissues) was “otherwise increased”, the “MUC5AC, HDAC6, FOXA3, CAV1 and FOXA2 mRNA” value (human COPD lung tissues; COPD tissue, 10 μM, 72 h) was “failed to respond” and the “acetylated p53” value (WT mice exposed to PTS; WT mice, PTS) was “still showed elevated p53^AC, p53^S15, total p53 and PAI-1”.
